Some test systems named below: Candida krusei ATCC 6258; Acinetobacter baumannii; Escherichia coli Ec513; Enterococcus faecium; Penicillium roqueforti; Botrytis cinerea 101; Saccharomyces cerevisiae.
Common to all, as to test: ≥ marks a high value that may be exact or a test limit, other limits are often not marked, values filed in µg/mL are converted to µM
The subject of experiment [1] is Candida albicans ATCC 90028.
In experiment [2] the test system is Candida parapsilosis ATCC 22019.
The subject of experiment [3] is Pseudomonas aeruginosa ATCC 27853.
Experiment [4] deals with Escherichia coli ATCC 25922.
For experiment [5], the system named is Cryptococcus neoformans ATCC 90012.
The subject of experiment [6] is Acinetobacter baumannii NM8.
The subject of experiment [7] is Acinetobacter baumannii NM75.
The test system of experiment [8] is Acinetobacter baumannii NM124.
Experiment [9] concerns Acinetobacter baumannii Ab5755.
Experiment [10] concerns Staphylococcus aureus ATCC 25923.
In experiment [11] the test system is Acinetobacter baumannii NM109.
Experiment [12] has as its system Escherichia coli ATCC 25726.
For experiment [13], the system named is Acinetobacter baumannii NM35.
Experiment [14] has as its system Acinetobacter baumannii Ab1408.
The test system of experiment [15] is Pseudomonas aeruginosa Pa1409.
In experiment [16] the test system is Pseudomonas aeruginosa Pa4216.
The test system of experiment [17] is Staphylococcus aureus Sa1390.
Experiment [18] concerns Acinetobacter baumannii Ab5753.
The test system of experiment [19] is Xanthomonas campestris pv. Vesicatoria 2133-2.
Experiment [20] relates to Pseudomonas syringae pv. syringae EPS 94.
Experiment [21] concerns Erwinia amylovora PMV 6076.
The subject of experiment [22] is Enterococcus faecalis ATCC 29212.
In experiment [23] the test system is Staphylococcus aureus K52.
Experiment [24] has as its system Staphylococcus aureus K35.
Experiment [25] deals with Staphylococcus epidermidis KCTC 1917.
Experiment [26] concerns Saccharomyces cerevisiae KCTC 7296.
Experiment [27] relates to Candida albicans KCTC 7270.
Experiment [28] concerns Bacillus subtilis KCTC 1918.
Experiment [29] has as its system Pseudomonas aeruginosa KCTC 1637.
The test system of experiment [30] is Trichosporon beigelii KCTC 7707.
In experiment [31] the test system is Salmonella typhimurium KCTC 1926.
The test system of experiment [32] is Staphylococcus aureus KCTC 1621.
The test system of experiment [33] is Escherichia coli KCTC 1682.
For experiment [34], the system named is Corynebacterium glutamicum ATCC 13032.
For experiment [35], the system named is Vibrio anguillarum FT1801.
Experiment [36] relates to Candida albicans ATCC 10231.
In experiment [37] the test system is Staphylococcus aureus ATCC 9144.

Converted amounts (≈) assume the structure as drawn.

As a reminder, the MIC is the lowest concentration that inhibits growth of the organism. A higher MIC goes with a need for much substance. Turning to `CC[C@H](C)[C@H](NC(=O)[C@H](Cc1ccccc1)NC(=O)[C@H](CC(N)=O)NC(=O)[C@H](CCCCN)NC(=O)[C@H](C)NC(=O)[C@@H](NC(=O)[C@H](CC(N)=O)NC(=O)[C@H](Cc1ccccc1)NC(=O)[C@H](C)NC(=O)[C@H](C)NC(=O)[C@H](CCCCN)NC(=O)CNC(=O)[C@H](CCCCN)NC(=O)[C@H](CCCCN)NC(=O)[C@H](CCCCN)NC(=O)[C@H](C)NC(=O)[C@@H](NC(=O)[C@H](CC(=O)O)NC(=O)[C@H](CC(C)C)NC(=O)[C@H](Cc1c[nH]c2ccccc12)NC(=O)CN)C(C)C)C(C)C)C(N)=O` [GWLDVAKKKGKAAFNVAKNFI], the MIC in [1] came out at 16 µM (≈ 36.9 µg/mL); against Candida krusei ATCC 6258, 31 µM (≈ 71.4 µg/mL); in [2], 31 µM (≈ 71.4 µg/mL); in [3] it was 32 µM (≈ 73.8 µg/mL); in [4] it was 8 µM (≈ 18.4 µg/mL); in experiment [5], 31 µM (≈ 71.4 µg/mL).
As for `CC[C@H](C)[C@H](NC(=O)CN)C(=O)N[C@@H](Cc1c[nH]c2ccccc12)C(=O)N[C@@H](CCCCN)C(=O)N[C@H](C(=O)N[C@H](C(=O)N[C@@H](CCCCN)C(=O)N[C@@H](CO)C(=O)N[C@@H](CCSC)C(=O)NCC(=O)N[C@@H](CCCCN)C(=O)N[C@H](C(=O)N[C@@H](Cc1ccccc1)C(=O)N[C@@H](C)C(=O)NCC(=O)N[C@@H](CCCCN)C(=O)N[C@H](C(=O)N[C@@H](CC(C)C)C(=O)N[C@@H](CCC(N)=O)C(=O)N[C@@H](CC(N)=O)C(=O)N[C@@H](CC(C)C)C(N)=O)[C@@H](C)CC)C(C)C)[C@@H](C)CC)[C@@H](C)O` [GIWKTIKSMGKVFAGKILQNL], the minimal inhibitory concentration (MIC) in experiment [1] turned out to be 6 µM (≈ 14 µg/mL); in the experiment with Acinetobacter baumannii, 6.25 µM (≈ 14.6 µg/mL); in experiment [6], 3 µM (≈ 7 µg/mL); in experiment [7], 3 µM (≈ 7 µg/mL); in [8], 1.5 µM (≈ 3.5 µg/mL); in experiment [9] it was 1.71 µM (≈ 4 µg/mL). Also, the minimum inhibitory concentration (MIC) in [10] is 12.5 µM (≈ 29.1 µg/mL); in experiment [11], 1.5 µM (≈ 3.5 µg/mL); in experiment [12] it was 6.25 µM (≈ 14.6 µg/mL); in [13], 3 µM (≈ 7 µg/mL); in [14], 6.86 µM (≈ 16 µg/mL); in experiment [15] it was 13.7 µM (≈ 32 µg/mL). Moreover, the minimum inhibitory concentration (MIC) is 13.7 µM (≈ 32 µg/mL) in experiment [16], 6.86 µM (≈ 16 µg/mL) in [17], 3.43 µM (≈ 8 µg/mL) in experiment [18] and 3.43 µM (≈ 8 µg/mL) in the experiment with Escherichia coli Ec513.
In the case of `CC[C@H](C)[C@H](NC(=O)[C@H](CCCCN)NC(=O)[C@H](CCCCN)NC(=O)[C@H](Cc1ccccc1)NC(=O)[C@H](CC(C)C)NC(=O)[C@H](CCCCN)NC(=O)[C@@H](N)CCCCN)C(=O)N[C@@H](CC(C)C)C(=O)N[C@@H](CCCCN)C(=O)N[C@@H](Cc1ccc(O)cc1)C(=O)N[C@@H](CC(C)C)C(=O)N[C@@H](CCCCN)C(=O)N[C@@H](CC(=O)O)C(=O)N[C@@H](CCC(=O)O)C(=O)N[C@@H](CC(C)C)C(=O)O` [KKLFKKILKYLKDEL], the results for the MIC in experiment [19], in experiment [20] and in experiment [21] were 1.77 µM (≈ 3.37 µg/mL), 3.54 µM (≈ 6.74 µg/mL) and 3.54 µM (≈ 6.74 µg/mL), respectively.
As for `CC(C)C[C@H](NC(=O)[C@H](C)NC(=O)CNC(=O)[C@H](CO)NC(=O)[C@H](CC(C)C)NC(=O)[C@@H](NC(=O)[C@H](CCCN=C(N)N)NC(=O)CNC(=O)[C@H](C)NC(=O)[C@H](CC(C)C)NC(=O)[C@@H]1CCCN1C(=O)[C@H](CC(C)C)NC(=O)[C@@H](N)Cc1ccccc1)C(C)C)C(N)=O` [FLPLAGRVLSGAL], the MIC in experiment [22] was greater than 168 µM; in experiment [23] it was no less than 99.8 µM; in [10], greater than 168 µM; in experiment [24] it was no less than 99.8 µM; in the experiment on Enterococcus faecium, no less than 99.8 µM.
Take `CC[C@H](C)[C@H](NC(=O)[C@H](CCCCN)NC(=O)[C@H](CO)NC(=O)[C@H](Cc1ccccc1)NC(=O)[C@H](CC(C)C)NC(=O)[C@H](CCCCN)NC(=O)[C@H](CCC(=O)O)NC(=O)[C@H](CC(C)C)NC(=O)[C@H](CCCN=C(N)N)NC(=O)[C@H](CCCCN)NC(=O)[C@H](Cc1ccccc1)NC(=O)[C@H](Cc1c[nH]c2ccccc12)NC(=O)[C@@H](N)CCCCN)C(N)=O` [KWFKRLEKLFSKI]: the MIC came out at 3.12 µM (≈ 5.38 µg/mL) in experiment [25]; 6.25 µM (≈ 10.8 µg/mL) in experiment [26]; 17.7 µM (≈ 30.4 µg/mL) in experiment [27]; 1.56 µM (≈ 2.69 µg/mL) in [28]; 1.56 µM (≈ 2.69 µg/mL) in experiment [29]; 1.56 µM (≈ 2.69 µg/mL) in experiment [30]. The MIC in [31] was determined as 0.78 µM (≈ 1.34 µg/mL); in [32] it was 1.56 µM (≈ 2.69 µg/mL); in [33] it was 3.12 µM (≈ 5.38 µg/mL).
`CC(C)C[C@H](NC(=O)[C@H](C)NC(=O)[C@H](Cc1cnc[nH]1)NC(=O)[C@H](C)NC(=O)[C@H](C)NC(=O)[C@H](C)NC(=O)[C@H](CS)NC(=O)[C@H](C)NC(=O)CNC(=O)[C@H](CCCN=C(N)N)NC(=O)[C@H](CC(C)C)NC(=O)[C@@H](N)CC(=O)O)C(=O)O` [DLRGACAAAHAL]: the minimum inhibitory concentration (MIC) in experiment [34] was no less than 100 µM; with Penicillium roqueforti, no less than 100 µM; in the experiment with Botrytis cinerea 101, no less than 100 µM; in [4] it was greater than 100 µM; in [35], no less than 100 µM; in [36] it was greater than 100 µM. Besides, the MIC (in [37]; against Saccharomyces cerevisiae) was no less than 100 µM each time.

Values taken from DBAASP.
